From patent US20080193563A1, “HARNESSING WNT SIGNALING TO RESTRICT HIV REPLICATION” (priority 2006, published 2008)

How the values were obtained:
HIV-Bal in U87MG = experiment: Cytokine pre-stimulation and HIV-Bal replication in U87MG, p24 ELISA; type: cell-based; settings: pre-stimulation at 10 ng/ml, p24 day 7
Description: (§1) U87MG (A) and HFA (B) were pre-stimulated with increasing doses of either GM-CSF or IFNγ for 24 h followed by HIV-BAL infection for 24 hours. HIV replication was determined by measuring HIV p24 levels by ELISA seven days post-infection. The dotted line represents basal level of HIV infection of astrocytes without cytokine pre-treatment. Data is representative of three experiments performed in quadruplicate. Error bars represent standard deviations of the mean. Asterisks denote significant values (p<0.05) in comparison to untreated cultures as evaluated by analysis of variance.
(§2) To determine if pre-stimulation of astrocytes primes astrocytes, for productive HIV infection, U87MG and HFA were pre-treated for 24 hours with TNFγ, GM-CSF, or IFNγ at various concentrations (0-1000 ng/ml) then infected with HIV-Bal at 10 ng of HIV p24/1×10^6 cells for 24 hours. The cells were then washed extensively or trypsinized to remove bound virus and propagated in the presence of the respective cytokine concentration. HIV infection was monitored by p24 ELISA seven days post-infection. […]
(§3) IFN-γ Treatment and HIV Infection. […] HIV infection was monitored at day 7 postinfection by measuring p24 levels by conventional enzyme-linked immunosorbent assay (ELISA) (National Cancer Institute, Frederick, Md.).

HIV-Bal in HFA = experiment: Cytokine pre-stimulation and HIV-Bal replication in human fetal astrocytes, p24 ELISA; type: cell-based; settings: 24 h pre-stimulation, p24 day 7
Description: as §1, §2, §3

[1] = system: IFNγ, GM-CSF and TNFγ receptors on U87MG; experiment: Cytokine receptor expression on U87MG by flow cytometry; type: cell-based, human; settings: 24-hour treatment
Description: U87MG (A) or HFA (B) were left untreated or treated with GM-CSF (50 ng/ml), IFNγ100 ng/ml) or TNFγ100 ng/ml). […] Percent expression of GM-CSF receptor (R), IFNγR, and TNFγR was measured 24 hours post-stimulation by flow cytometry. Data is representative of three experiments. Error bars represent standard deviations of the mean.
Prior to evaluating if GM-CSF, IFNγ, and TNFγ can augment HIV replication of astrocytes, a question was whether U87MG and HFA express the respective cytokine receptors. U87MG and HFA were treated with or without the respective cytokine for 24 hours and cytokine receptor expression was evaluated by flow cytometry. Approximately 35% of U87MG expressed the IFNγ receptor and a low level of GM-CSF and TNFγ receptors (<8%; FIG. 3A). […] Untreated HFA expressed only low levels of IFNγ receptor (6%) and this expression was abrogated with IFNγ treatment. GM-CSF and TNFγ receptors were not expressed on HFA.

[2] = system: CD4, hMR, CCR1, D6 on U87MG; experiment: HIV receptor and chemokine co-receptor expression on U87MG by flow cytometry; type: cell-based, human
Description: (§4) U87MG (A) and HFA (B) were left untreated or treated GM-CSF (50 ng/ml) or IFNγ (100 ng/ml) for 24 h. Expression of receptors on the x-axis was measured by flow cytometry. Isotype refers to mouse IgG. Data is representative of three experiments. Error bars represent standard deviation of the mean. (C). IFNγ up-regulates D6 on U87MG cells. U87MG were left untreated or treated with IFNγ. After 3 days, the cells were immunostained with anti-D6 or isotype antibodies. The first histogram (peak) represents isotype control; the dark shaded histogram represents untreated cultures, and the third histogram (peak) represents IFNγ-treated cultures. Data is typical of quadruplet experiments.
(§5) Because IFNγ was a potent cytokine in inducing HIV infection of astrocytes, it was determined whether IFNγ treatment modulated key HIV receptors CD4, human mannose receptor D6 and co-receptors (CCR1, CCR2, CCR3, CXCR4, and CCR5) for HIV infection. U87MG is human mannose receptor (hMR) […] (FIG. 5). However, hMR was not detected on HFA, which may be regulated by the differentiation stage of the HFA (FIG. 5 (B)). CD4 and hMR expression in both U87MG and HFA was not augmented by IFNγ or GM-CSF (FIG. 5(A)-(B)). […] HFA were positive for CXCR4 (12%), but its expression was not augmented by GM-CSF or IFNγ treatment (FIG. 5B). IFNγ was reported to enhance CXCR4 and CCR5 expression on simian adult astrocytes, which is in contrast to data on human fetal astrocytes highlighting a discrepancy between simian adult and human fetal astrocytes. […] Infection of U87MG and HFA with a T-tropic isolate (IIIB), while it was productive, was not enhanced by cytokine pre-treatment. This may be a consequence of the laboratory adapted HIV IIIB, therefore primary T-tropic or dual tropic strains may still be responsive to IFNγ pre-treatment of astrocytes. Recently, the CC chemokine receptor D6 was identified as a functional co-receptor for primary HIV infection of astrocytes.

CD4, hMR, CXCR4 on HFA = experiment: HIV receptor and chemokine co-receptor expression on HFA by flow cytometry; type: cell-based, human
Description: as §4, §5

HIV IIIB = HIV IIIB replication in stimulated PBMCs, p24 ELISA; type: cell-based; parameters: dose or concentration left out as unconfirmed; settings: ALLN at either 5 or 25, p24 day 7, vs non-ALLN treated
HIV 302151 (93US151) = experiment: Primary HIV isolate 302151 replication in stimulated PBMCs, p24 ELISA; type: cell-based; settings: ALLN at either 5 or 25, p24 day 7, vs non-ALLN treated

Row | Substance | Induction of HIV replication (HIV-Bal in U87MG) | Induction of HIV replication (HIV-Bal in HFA) | Effect on respective cytokine receptor expression [1] | CD4 and hMR expression [2] | Up-regulation of CCR1 expression ([2]; 24 h treatment) | CD4 and hMR expression (CD4, hMR, CXCR4 on HFA) | CXCR4 expression (CD4, hMR, CXCR4 on HFA; untreated 12%) | Induction of HIV IIIB replication (HIV IIIB) | Induction of HIV 30215 replication (HIV 302151 (93US151))
1 | GM-CSF: cytokine secreted by glial cells; used to pre-stimulate astrocytes | 5 fold | no effect | neither GM-CSF nor TNFγ treatments had an effect | not augmented | no effect | not augmented | not augmented | – | –
2 | N-acetyl-Leu-Leu-norleucinal [ALLN peptide] | – | – | – | – | – | – | – | three | five-fold
